Assay results taken from publication PMC7845643, “Predictive Rules of Efflux Inhibition and Avoidance in Pseudomonas aeruginosa” (mBio, 2021).
pKd: −log10 of the molar value. ≈ marks a conversion by molar mass, not a printed value.

How the values were obtained:
[1] = system: T1, Pseudomonas aeruginosa PAO1-Pore; experiment: microbe, parasite or virus in culture; design: 2-fold serial broth dilution MIC (at least 90% growth inhibition); conditions: PAO1, read-out: MICs (mg/L) in strains: / PAO1-Pore
T1 construct: PAO1-Pore (hyperporinated, attTn7::mini-Tn7T-Gmr-lacIq-pLAC-fhuADCΔ4L)
Procedure: (§1) Antibacterial activities were tested using a 2-fold serial dilution broth assay as described previously ([13]). The antibacterial activities are expressed as MIC (defined as at least 90% of growth inhibition) and IC50. To follow the fate of compounds in cells and to identify descriptors associated with different permeation barriers, we first separated the contributions of the OM barrier and active efflux in measured activities of compounds. For this purpose, the bacterial growth-inhibitory activities for all Rempex compounds were analyzed in four P. aeruginosa strains: the wild-type strain, PAO1; the PΔ6 strain, lacking six efflux pumps (ΔmexAB-oprM, ΔmexCD-oprJ, ΔmexXY, ΔmexJKL, ΔmexEF-oprN, and ΔtriABC); and their hyperporinated derivatives, PAO1-Pore and PΔ6-Pore, respectively ([39]). These strains were previously shown to differ dramatically in their susceptibilities to various classes of antibiotics because of differences in efflux proficiency and permeation across the OM ([13], [15]). To normalize to the differences in target inhibition potency among compounds, our key measured parameters were efflux ratios and OM barrier ratios, defined as the 50% inhibitory concentration for the parent/mutant (IC50 parent/IC50 mutant), for efflux mutants and hyperporinated mutants, respectively (see Table S1 in the supplemental material). More specifically, the IC50 ratios for PAO1/PAO1-Pore and PΔ6/PΔ6-Pore define the contribution of the OM barrier to the activities of compounds in the presence and absence of efflux, respectively. […] Activities of only a few compounds were slightly affected by the OM. Among them are compounds 58 and 46 (Fig. 1A), whose activity is enhanced by hyperporination of efflux-deficient PΔ6-Pore cells by 16- and 8-fold, respectively.

[2] = system: T2, Pseudomonas aeruginosa PAO1; experiment: microbe, parasite or virus in culture; design: 2-fold serial broth dilution MIC (at least 90% growth inhibition); conditions: PAO1, read-out: MICs (mg/L) in strains: / PAO1
T2 construct: PAO1 (attTn7::mini-Tn7T-Gm-lacIq-pLAC-MCS)
Procedure: as §1

[3] = system: T3, Pseudomonas aeruginosa PΔ6-Pore; experiment: microbe, parasite or virus in culture; design: 2-fold serial broth dilution MIC (at least 90% growth inhibition); conditions: read-out: MICs (mg/L) in strains: / D6-Pore
T3 construct: PΔ6-Pore (six efflux pumps deleted, hyperporinated with fhuADCΔ4L)
Procedure: as §1

[4] = system: T4, Pseudomonas aeruginosa PΔ6; experiment: microbe, parasite or virus in culture; design: 2-fold serial broth dilution MIC (at least 90% growth inhibition); conditions: read-out: MICs (mg/L) in strains: / D6
T4 construct: PΔ6 (PAO1 ΔmexAB-oprM ΔmexCD-oprJ ΔmexXY ΔmexJKL ΔmexEF-oprN ΔtriABC, efflux-deficient)
Procedure: as §1

MexB = target: T5, MexB (Pseudomonas aeruginosa, UniProt P52002); experiment: SPR (Biacore T200, CM5 chip, immobilized MexB, kinetic fit); type: binding
T5 construct: purified MexB immobilized by amine coupling
T5 sequence (P52002 whole entry): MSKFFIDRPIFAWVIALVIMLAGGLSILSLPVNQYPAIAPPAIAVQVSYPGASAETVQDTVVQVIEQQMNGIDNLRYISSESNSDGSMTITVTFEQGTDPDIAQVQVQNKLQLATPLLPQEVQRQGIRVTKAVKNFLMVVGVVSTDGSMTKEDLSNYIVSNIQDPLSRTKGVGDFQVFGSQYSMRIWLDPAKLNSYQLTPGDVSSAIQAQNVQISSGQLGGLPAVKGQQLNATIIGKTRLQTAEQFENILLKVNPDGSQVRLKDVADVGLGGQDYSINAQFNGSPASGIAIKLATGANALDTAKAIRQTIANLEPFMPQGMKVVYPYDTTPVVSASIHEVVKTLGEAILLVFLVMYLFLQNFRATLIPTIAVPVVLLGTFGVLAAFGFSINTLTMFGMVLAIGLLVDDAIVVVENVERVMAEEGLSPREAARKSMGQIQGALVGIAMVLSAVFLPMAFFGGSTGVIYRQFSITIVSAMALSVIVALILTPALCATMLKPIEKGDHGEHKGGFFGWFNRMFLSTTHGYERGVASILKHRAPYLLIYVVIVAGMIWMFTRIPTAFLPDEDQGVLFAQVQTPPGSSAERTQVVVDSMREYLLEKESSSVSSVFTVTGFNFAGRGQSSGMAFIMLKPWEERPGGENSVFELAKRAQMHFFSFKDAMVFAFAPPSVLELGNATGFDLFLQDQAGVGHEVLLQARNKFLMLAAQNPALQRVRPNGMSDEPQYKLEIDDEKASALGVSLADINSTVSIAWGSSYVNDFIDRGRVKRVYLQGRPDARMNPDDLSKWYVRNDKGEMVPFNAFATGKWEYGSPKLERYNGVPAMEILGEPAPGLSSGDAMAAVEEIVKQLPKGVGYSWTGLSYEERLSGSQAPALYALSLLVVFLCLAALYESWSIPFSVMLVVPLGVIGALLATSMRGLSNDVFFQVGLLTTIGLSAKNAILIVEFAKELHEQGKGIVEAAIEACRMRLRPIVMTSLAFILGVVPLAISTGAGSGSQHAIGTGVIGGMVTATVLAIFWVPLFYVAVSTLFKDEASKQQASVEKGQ

Question: Which results are given for O=C(O)C1=C(CSc2nnnn2CS(=O)(=O)O)CS[C@@H]2[C@H](NC(=O)[C@H](O)c3ccccc3)C(=O)N12 [OU-666, cefonicid]?
Answer: MIC [1]: 3.9 mg/L (≈ 7.19 µM); MIC [2]: 62.5 mg/L (≈ 115 µM); MIC [3]: 3.9 mg/L (≈ 7.19 µM)

Question: With Nc1nc(/C(=C/CC(=O)O)C(=O)N[C@@H]2C(=O)N3C(C(=O)O)=CCS[C@H]23)cs1 [OU-668, ceftibuten] as the compound, how does the MIC [1] read?
Answer: The MIC was 2000 mg/L (≈ 4870 µM).

Question: And the MIC [2]?
Answer: The MIC was over 2000 mg/L.

Question: And the MIC [3]?
Answer: Its MIC is 128 mg/L (≈ 312 µM).

Question: What about the MIC [4] of the same compound?
Answer: The MIC was 1000 mg/L (≈ 2440 µM).

Question: With Cc1cc(O)c(C(=O)N[C@@H](C(=O)N[C@@H]2C(=O)N3C(C(=O)O)=C(CSc4nnnn4C)CS[C@H]23)c2ccc(O)cc2)cn1 [OU-031452, cefpiramide] as the compound, how does the MIC [1] read?
Answer: The MIC was over 1000 mg/L.

Question: And the MIC [2]?
Answer: Its MIC is over 1000 mg/L.

Question: And the MIC [3]?
Answer: Its MIC is 250 mg/L (≈ 408 µM).

Question: What about the MIC [4] of the same compound?
Answer: Its MIC is over 1000 mg/L.

Question: What does the source list for CO[C@@]1(NC(=O)C(C(=O)O)c2ccc(O)cc2)C(=O)N2C(C(=O)O)=C(CSc3nnnn3C)CO[C@@H]21 (stereo partly drawn) [OU-672, moxalactam]?
Answer: MIC [1]: 15.6 mg/L (≈ 30 µM); MIC [2]: 62.5 mg/L (≈ 120 µM); MIC [3]: 0.97 mg/L (≈ 1.86 µM); MIC [4]: 62.5 mg/L (≈ 120 µM)

Question: C[N+](CCN)(CCN)CCC[C@H](N)C(=O)N[C@H](CCc1ccc(C(F)(F)F)cc1)C(=O)Nc1cnc2ccccc2c1 [compound 17] was tested. Which pKd (MexB) did it give?
Answer: The pKd was 4.62.

Question: Which results are given for CO[C@@]1(NC(=O)C2SC(=C(C(N)=O)C(=O)O)S2)C(=O)N2C(C(=O)O)=C(CSc3nnnn3C)CS[C@@H]21 (stereo partly drawn) [OU-654, cefotetan]?
Answer: MIC [1]: 200 mg/L (≈ 347 µM); MIC [2]: > 400 mg/L; MIC [3]: 12.5 mg/L (≈ 21.7 µM); MIC [4]: 100 mg/L (≈ 174 µM)

Question: Which MIC [1] does the source give for CO/N=C(\C(=O)N[C@@H]1C(=O)N2C(C(=O)O)=C(CSc3nc(=O)c(O)nn3C)CS[C@H]12)c1csc(N)n1 [OU-640, ceftriaxone] here?
Answer: The MIC was 0.97 mg/L (≈ 1.75 µM).

Question: What about the MIC [2] of the same compound?
Answer: Its MIC is 15.6 mg/L (≈ 28.1 µM).

Question: And the MIC [3]?
Answer: The MIC was 0.06 mg/L (≈ 0.108 µM).

Question: And the MIC [4]?
Answer: Its MIC is 3.9 mg/L (≈ 7.03 µM).

Question: Which results are given for CCN1CCN(C(=O)N[C@@H](C(=O)N[C@@H]2C(=O)N3C(C(=O)O)=C(CSc4nnnn4C)CS[C@H]23)c2ccc(O)cc2)C(=O)C1=O [OU-634, cefoperazone]?
Answer: MIC [1]: 0.97 mg/L (≈ 1.5 µM); MIC [2]: 3.9 mg/L (≈ 6.04 µM); MIC [3]: 0.97 mg/L (≈ 1.5 µM)
